Series [1] is described as follows: Cytotoxicity against African green monkey Vero cells assessed as reduction in cell viability after 18 hrs by […]. It counts as cell-based. As to conditions: chlorocebus sabaeus. On the technique in general: Real-time PCR tracks product formation cycle by cycle.
Series [2] in a line: Selectivity index, ratio of CC50 for African green monkey Vero cells to EC50 for Chikungunya virus 899. It counts as toxicity. As to conditions: read-out: Ratio CC50/EC50.
Series [3] deals with Chikungunya virus. The series is described as follows: Antiviral activity against Chikungunya virus 899 infected in African green monkey Vero cells by MTS assay. The following applies: Chikungunya virus, 899, Vero. The series is classed as functional, organism-based. On the technique in general: Formazan colour is commonly taken as a measure of viable cells.

Some results are limits rather than exact numbers.

Consider `O=c1cc(CSc2nc(O)c3ccccc3n2)c2ccc(O)cc2o1`, for which, in series [1], the cytotoxic concentration (CC50) at 18 h is greater than 284 µM. Also, the selectivity ratio in series [2] was greater than 1.5. For the same compound, in series [3], the EC50 stood at 192 µM.
`Cc1ccc2nc(SCc3cc(=O)oc4cc(OS(=O)(=O)c5ccc([N+](=O)[O-])cc5)ccc34)[nH]c(=O)c2c1`: the EC50 in series [3] was greater than 199 µM.
For `Cc1ccc(S(=O)(=O)Oc2ccc3c(CSC4=NCCC(=O)N4)cc(=O)oc3c2)cc1`, in series [1], the CC50 at 18 h is 60.2 µM. Further, in series [2], the selectivity ratio is 2.6. The compound further yielded an EC50 in series [3] of 23.1 µM.
As to `Cc1cnc(SCc2cc(=O)oc3cc(OCc4ccc(F)cc4)ccc23)[nH]c1=O`, the CC50 at 18 h in series [1] is 104 µM. The selectivity ratio in series [2] was 2.3. The compound also had a concentration giving a half-maximal response (EC50) in series [3] of 45.1 µM.
Taken in the same sequence, the figures for `O=c1cc(CSc2nc3ccccc3c(=O)[nH]2)c2ccc(OS(=O)(=O)c3ccc([N+](=O)[O-])cc3)cc2o1` were 117 µM, 2.2 and 54.5 µM.
In series [3], `O=c1ccnc(SCc2cc(=O)oc3cc(OCc4ccccc4)ccc23)[nH]1` gave an EC50 greater than 255 µM.
As to `O=c1cc(CSc2nc3ccccc3c(=O)[nH]2)c2ccc(OS(=O)(=O)c3ccccc3)cc2o1`, in series [1], the CC50 at 18 h was determined as 178 µM. The selectivity ratio in series [2] amounted to 9.3. For the same compound, in series [3], the EC50 was 19.1 µM.
For `Cc1ccc2nc(SCc3cc(=O)oc4cc(OS(=O)(=O)c5ccccc5[N+](=O)[O-])ccc34)[nH]c(=O)c2c1` the same measures were 107 µM, 5.6 and 19 µM.
As to `O=C1CCN=C(SCc2cc(=O)oc3cc(OS(=O)(=O)c4ccccc4[N+](=O)[O-])ccc23)N1`, the CC50 at 18 h in series [1] was 75.2 µM. In series [2], the selectivity ratio stood at 5.8. The compound further displayed an EC50 in series [3] of 13 µM.
Taken in the same sequence, the figures for `Cc1ccc(S(=O)(=O)Oc2ccc3c(CSc4nc5ccc(C)cc5c(=O)[nH]4)cc(=O)oc3c2)cc1` were 114 µM, 4.3 and 26.4 µM.
`Cc1cnc(SCc2cc(=O)oc3cc(OCc4ccccc4)ccc23)[nH]c1=O` returned an EC50 in series [3] greater than 246 µM.
On to `O=c1cc(CSc2nc3ccccc3c(=O)[nH]2)c2ccc(OS(=O)(=O)c3ccc(F)cc3)cc2o1`, for which, in series [1], the CC50 at 18 h is 30 µM. In series [2], the selectivity ratio turned out to be 1.6. In addition, a half-maximal response in series [3] (EC50) required 18.4 µM.
For `O=C1CCN=C(SCc2cc(=O)oc3cc(OS(=O)(=O)c4ccc(F)cc4)ccc23)N1`, the cytotoxic concentration (CC50) at 18 h in series [1] was determined as 111 µM. The compound further displayed an EC50 in series [3] of 128 µM.
Taken in the same sequence, the figures for `Cc1ccc2nc(SCc3cc(=O)oc4cc(OS(=O)(=O)c5ccc(F)cc5)ccc34)[nH]c(=O)c2c1` were 86.4 µM and 116 µM.
In the case of `Cc1cnc(SCc2cc(=O)oc3cc(O)ccc23)[nH]c1=O`, the EC50 in series [3] is greater than 316 µM.
In turn, `O=c1cc(CSc2nc3ccccc3c(=O)[nH]2)c2ccc(OCc3ccccc3)cc2o1` returned an EC50 in series [3] greater than 45.2 µM.
Turning to `Cc1ccc(COc2ccc3c(CSc4nc5ccccc5c(=O)[nH]4)cc(=O)oc3c2)cc1`, in series [1], the CC50 at 18 h stood at 102 µM. The same compound registered an EC50 in series [3] greater than 2.19 µM.
`O=c1ccnc(SCc2cc(=O)oc3cc(O)ccc23)[nH]1` displayed an EC50 in series [3] greater than 331 µM.
Take `O=C1CCN=C(SCc2cc(=O)oc3cc(OS(=O)(=O)c4ccccc4)ccc23)N1`: in series [3], the concentration giving a half-maximal response (EC50) came to 57.4 µM.
Compound `O=C1CCN=C(SCc2cc(=O)oc3cc(OS(=O)(=O)c4ccc([N+](=O)[O-])cc4)ccc23)N1` had an EC50 in series [3] greater than 205 µM.
With `Cc1ccc(COc2ccc3c(CSc4ncc(C)c(=O)[nH]4)cc(=O)oc3c2)cc1`, the EC50 in series [3] was greater than 48 µM.
Take `O=c1ccnc(SCc2cc(=O)oc3cc(OCc4ccc([N+](=O)[O-])cc4)ccc23)[nH]1`: the CC50 at 18 h in series [1] turned out to be 13.8 µM. In addition, the selectivity ratio in series [2] came to 3. Further, in series [3], a half-maximal response (EC50) required 4.6 µM.
`Cc1ccc(S(=O)(=O)Oc2ccc3c(CSc4nc5ccccc5c(=O)[nH]4)cc(=O)oc3c2)cc1`: the CC50 at 18 h in series [1] came out at 117 µM. Besides, the selectivity ratio in series [2] was found to be 11.5. A half-maximal effect in series [3] (EC50) was put at 10.2 µM.

As usually defined, the CC50 is the concentration that lowers cell viability or growth by half. As a reminder, the EC50 is the concentration that produces a half-maximal response.

Source of the values: ChEMBL document CHEMBL4177563, “The medicinal chemistry of Chikungunya virus” (Bioorg Med Chem, 2017).
